Reference: patent US9265736B2, “Treatment of cardiovascular disease and thrombosis” (THE CLEVELAND CLINIC FOUNDATION, priority 2011, dated 2016)
Entries after “also recorded” stand apart in the source; their conditions may differ.

Tests used:
Peritoneal macrophages [1] = assay: Cholesterol accumulation and foam cell formation, oil red O staining of peritoneal macrophages (Example 4); format: in vivo, C57BL/6J.Apoe−/− male mice; conditions: chow with 1.3% choline and 1.3% DMB
Procedure: Experiments were conducted during development of embodiments of the present invention to examine the effect of addition of DMB on cholesterol accumulation and foam cell formation. C57BL/6J.Apoe−/− male mice at the time of weaning (4 weeks) were placed on chow diet supplemented with 1.3% choline, 1.3% DMB, both, or neither. Peritoneal macrophages were collected, fixed in 4% paraformaldehyde and stained with oil red 0/hematoxin. Addition of DMB reversed the high choline diet induced cholesterol accumulation and foam cell formation (SEE FIG. 6).

[2] = tested on: C57BL/6J.Apoe−/− male mice; assay: Aortic root lesion / atherosclerotic plaque, oil red O staining (Example 2); format: in vivo
Source text: C57BL/6J.Apoe−/− male mice at the time of weaning (4 weeks) were placed on chow diet supplemented with 1.3% choline, 1.3% DMB, both, or neither. Aortic root section was stained with oil red 0/hematoxin. The red oil staining area inside the aorta indicates lesion plaque (SEE FIGS. 3 and 4).

platelets = assay: Ex vivo platelet aggregation triggered by ADP (Example 7); format: in vivo, mice
Procedure: In this example, mice were placed on either normal chow diet at time of weaning, or a high choline diet. After several weeks, whole blood was removed, and platelets isolated. The ability of a submaximal agonist of platelets, ADP, to trigger platelet aggregation was then determined. In parallel, plasma levels of TMAO were determined by established stable isotope dilution LC/MS/MS analyses. […] This is a clear signal of a pro-thrombotic phenotype in the mice on a high choline diet. In a similar study, the mice on the high choline were also placed on a cocktail of broad spectrum antibiotics (described above and in Wang et al., Nature 2011, April, 472(7341):57-63, incorporated by reference it its entirety for all purposes) to suppress intestinal microflora, and reduce plasma TMAO levels. […] Such drugs (e.g., DMB or antibiotics) are attractive since they should not induce excess bleeding (e.g., like commercial anti-thrombotic drugs like clopidogrel or Warfarin). That is, TMAO only accentuates platelet function, and reducing TMAO levels (like with DMB, antibiotic, or some other drug or approach, be it functional food, probiotic, or prebiotic) would decrease in vivo thrombosis, but not reduce below “normal” function, and thus not increase bleeding risk. […]

wild-type mice = assay: Carotid artery in vivo thrombosis rate by vital microscopy, wild-type mice
Procedure: This example repeats the study immediately above, excepts uses wild-type mice. The results are shown FIG. 14.
Carotid artery in vivo thrombosis rates were determined using vital microscopy on the indicated groups of mice shown in FIG. 15. Mice were on the indicated diets +/− ABS or DMB for 3 weeks.

intestinal microflora = assay: Intestinal microflora-catalyzed generation of trimethylamine from choline, cecum homogenate (Example 6); format: biochemical; conditions: D9-choline substrate, mouse cecum homogenate
Procedure: Experiments were conducted during development of embodiments of the present invention to examine the effect of DMB on intestinal microflora-catalyzed generation of trimethylamine from choline. Mouse celum was homogenized as a source of intestinal microflora. D9-choline was used as a substrate and the generation of […] was quantificed by stable isotope dilution LC/MS/MS.

[3] = Plasma lipoprotein profile (Example 3); format: in vivo, mice; conditions: 1.3% DMB added to mouse diet
Procedure: Experiments were conducted during development of embodiments of the present invention to compare plasma levels of (1) cholesterol, (2) triglyceride, low density lipoprotein-cholesterol, and HDL cholesterol in mice fed chow, or chow supplemented with 1.3% choline, 1.3% DMB, or both (SEE FIG. 5).

[4] = Plasma TMAO in mice on supplemented chow (Example 1); format: in vivo, C57BL/6J.Apoe−/− mice; conditions: normal chow supplemented with choline, TMAO or DMB vs normal chow
Procedure: (§1) Experiments were conducted during development of embodiments of the present invention to examine the structural specificity of phaophatidylcholine metabolites in promoting a pro-atherogenic macrophage phenotype as monitored by endogenous foam cell formation. C57BL/6J.Apoe−/− mice at time of weaning were placed on either normal chow diet (control) or normal chow supplemented with either choline, TMAO or the choline analog DMB, where the quaternary amine nitrogen of choline is replaced with a carbon (SEE FIG. 2, right). Thus, DMB is structurally identical to choline except there is no C—N bond for potential cleavage and TMA formation by gut flora.

[5] = Plasma TMA and TMAO by stable isotope dilution LC/MS/MS in mice on diets (Example 7); format: in vivo
Procedure: Six week old female mice were placed on the indicated diets +/− shown in FIG. 9, including Chow, CHOW+ antibiotics (ABS; which was 0.5 g/L vancomycin, 1 g/L neomycin sulfate, 1 g/L metronidazole, and 1 g/L ampicillin), TMAO, CH (chow supplemented with 1.0% wt/wt choline), CH and ABS, and CH+DMB. Mice were placed on these diets at 6 weeks of age and maintained on the diets for 3 weeks. Plasma was then recovered and both TMA and TMAO were determined by stable isotope dilution LC/MS/MS. Note that a diet rich in choline (similar to a Western diet) leads to increases in plasma TMA and TMAO levels.
In this example, mice were placed on either normal chow diet at time of weaning, or a high choline diet. After several weeks, whole blood was removed, and platelets isolated. The ability of a submaximal agonist of platelets, ADP, to trigger platelet aggregation was then determined. In parallel, plasma levels of TMAO were determined by established stable isotope dilution LC/MS/MS analyses. […] This is a clear signal of a pro-thrombotic phenotype in the mice on a high choline diet. In a similar study, the mice on the high choline were also placed on a cocktail of broad spectrum antibiotics (described above and in Wang et al., Nature 2011, April, 472(7341):57-63, incorporated by reference it its entirety for all purposes) to suppress intestinal microflora, and reduce plasma TMAO levels. […] Such drugs (e.g., DMB or antibiotics) are attractive since they should not induce excess bleeding (e.g., like commercial anti-thrombotic drugs like clopidogrel or Warfarin). That is, TMAO only accentuates platelet function, and reducing TMAO levels (like with DMB, antibiotic, or some other drug or approach, be it functional food, probiotic, or prebiotic) would decrease in vivo thrombosis, but not reduce below “normal” function, and thus not increase bleeding risk.

peritoneal macrophages [6] = assay: Macrophage cholesterol accumulation in mice on supplemented chow (Example 1); format: in vivo, C57BL/6J.Apoe−/− mice; conditions: normal chow supplemented with choline (1.0%), TMAO (0.12%) or DMB (1.0%) vs normal chow
Procedure: Male C57BL/6J.Apoe−/− mice (15 week old) were placed on normal chow (control) alone or supplemented in the presence of either choline (1.0%), TMAO (0.12%), or DMB (1.0%). Peritoneal macrophages were recovered from the indicated number of mice at 20 weeks of age and cellular cholesterol content was quantified by stable isotope dilution GC/MS, and normalized to DNA content. (b) Schematic illustration of overall pathway.
as §1

[7] = tested on: peritoneal mouse macrophages; assay: Total cholesterol in peritoneal macrophages by stable isotope dilution LC/MS/MS (Example 5); format: in vivo, C57BL/6J.Apoe−/− male mice; conditions: chow with 1.3% choline and 1.3% DMB
Procedure: Experiments were conducted during development of embodiments of the present invention to determine the effect of DMB on total cholesterol level in peritoneal mouse macrophages (SEE FIG. 7). C57BL/6J.Apoe−/− male mice at the time of weaning (4 weeks) were placed on chow diet supplemented with 1.3% choline, 1.3% DMB, both, or neither. The total cholesterol of cells was quantified by stable isotope dilution LC/MS/MS. Cells number was quantified by protein content in cell lysates.

ApoE−/− mice = assay: Carotid artery in vivo thrombosis rate by vital microscopy, ApoE−/− mice; conditions: diet high in choline or supplemented with TMAO, 3 weeks
Procedure: In this example, carotid artery in vivo thrombosis rates were determined using vital microscopy on the indicated groups of mice in FIG. 13. Mice were on the indicated diets +/− ABS for 3 weeks.
These studies extend to in vivo studies what was seen before with ex vivo platelet aggregation studies from mice on the various indicated diets. […] A shorter time indicates faster platelet aggregation (enhanced in vivo thrombosis).

[8] = female mice, diets for 3 weeks, ABS or DMB added (high choline diet)

| SMILES | high choline diet induced cholesterol accumulation and foam cell formation (Peritoneal macrophages [1]) | reduction of aortic plaque formation ([2]; 1.3% DMB added to normal chow diet, from weaning (4 weeks)) [%] | increases in atherosclerotic plaque induced by the high choline diet ([2]; chow supplemented with 1.3% choline and 1.3% DMB) | choline diet induced platelet hyperresponsiveness (aggregation) (platelets; high choline diet plus antibiotics or DMB) | change in in vivo thrombosis rates seen on a high choline diet (wild-type mice; WT mice, high choline diet plus ABS or DMB, 3 weeks) | gut flora-mediated catabolism of choline to TMA (intestinal microflora) | plasma HDL cholesterol [3] | plasma low density lipoprotein-cholesterol [3] | plasma total cholesterol [3] | plasma triglyceride [3] | plasma levels of TMAO [4] | diet induced TMAO levels ([5]; WT thrombosis study, high choline diet plus ABS or DMB, 3 weeks) | plasma TMA formation [5, 8] | plasma TMAO formation [5, 8] | plasma TMAO formation ([5]; platelet study, high choline diet plus antibiotics or DMB) | macrophage cholesterol content (peritoneal macrophages [6]) | high choline diet induced increase in macrophage cholesterol content [7] | platelet aggregation responses to ADP (platelets; diet supplemented with choline or TMAO vs normal chow) | in vivo thrombosis rates (wild-type mice; wild-type mice, absence of dyslipidemia) | in vivo thrombosis rates (time to cessation of blood flow in the carotid artery) (ApoE−/− mice) |
| --- | --- | --- | --- | --- | --- | --- | --- | --- | --- | --- | --- | --- | --- | --- | --- | --- | --- | --- | --- | --- |
| CC(C)(C)CCO [DMB, 3,3-dimethyl-1-butanol] | reversed | ~90 | blocks the diet-induced enhanced atherosclerosis | markedly reduces platelet hyperresponsiveness; also recorded: blocks platelet hyper-responsiveness | block the reduction in in vivo thrombosis rates seen on a high choline diet | markedly inhibited | increase | significant reductions | significant reductions | significant reductions | no TMAO increase | block TMAO levels | inhibits | inhibits | inhibits TMAO formation | no increased accumulation | blocked | – | – | – |
| C[N+](C)(C)[O-] [TMAO, trimethylamine N-oxide, reference compound] | – | – | – | – | – | – | – | – | – | – | elevated | – | – | – | – | increased | – | promotes enhanced platelet aggregation | enhances in vivo thrombosis rates | promotes accelerated in vivo thrombosis rates |
